# Patent US8536225B2, “Therapeutic methods employing nitric oxide precursors” (Vanderbilt University, priority 1999, dated 2013)
# Tests used:
# Type in all cases: in vivo, Duroc swine
# [1] = Pharmacokinetics of plasma citrulline and arginine after single dose of IV citrulline; conditions: piglets, single dose IV citrulline 600 mg/kg
# Experimental: (§1) Intravenous citrulline has not been previously used in a clinical model. This Example assessed the safety of IV citrulline and its effect on serum arginine levels in piglets. A total of 9 Duroc swine, aged 5-21 days, with a target minimum weight of 4 kg were utilized. All piglets underwent anesthetic induction and tracheostomy. Central lines were placed in the femoral artery and femoral vein and hemodynamics monitored continuously. Citrulline (600 mg/kg IV) was administered to 5 piglets. Saline was given to control animals. Serum amino acids were drawn before and each hour after citrulline administration.
# Pharmacokinetics: Based on the above data, the pharmacokinetics were calculated for both plasma citrulline and arginie levels after the single dose of IV citrulline. Pharmacokinetic data included plasma half-life (t½), elimination constant (Kel), volume of distribution (Vd), and plasma clearance (CLp).
# [2] = Serum arginine levels after intravenous citrulline in piglets; conditions: citrulline 600 mg/kg IV
# Experimental: as §1
# [3] = Hemodynamic monitoring (mean arterial blood pressure) after IV citrulline in piglets; conditions: citrulline 600 mg/kg IV
# Experimental: as §1
structure (smiles),measurement,setting,value
"NC(=O)NCCC[C@H](N)C(=O)O [Citrulline, citrulline]",half-life,"[1]; Duroc, pig, plasma, read-out: Plasma citrulline half-life (t½) (converted)",1.5 h
same,clearance,"[1]; Duroc, pig, plasma, read-out: Plasma citrulline plasma clearance (CLp) (converted)",17.5 mL/min
same,Vd,"[1]; Duroc, pig, plasma, read-out: Plasma citrulline volume of distribution (Vd)",2.25 L
same,Plasma citrulline elimination constant (Kel),[1],0.462 h⁻¹
same,Time of peak serum arginine levels following IV citrulline administration,[2],1 to 2 h
same,"Arginine Levels Following IV Citrulline, 1 hour post","[2]; 1 hour post, serum",535.0 µmol/L
same,"Arginine Levels Following IV Citrulline, 2 hours post","[2]; 2 hours post, serum",559.8 µmol/L
same,"Arginine Levels Following IV Citrulline, 3 hours post","[2]; 3 hours post, serum",498.4 µmol/L
same,"Arginine Levels Following IV Citrulline, Baseline","[2]; baseline (before administration), serum",131.5 µmol/L
same,"Mean Arterial Blood Pressures Following IV Citrulline, 1 hour post",[3]; 1 hour post,67.4 mmHg
same,"Mean Arterial Blood Pressures Following IV Citrulline, 2 hours post",[3]; 2 hours post,64.8 mmHg
same,"Mean Arterial Blood Pressures Following IV Citrulline, 3 hours post",[3]; 3 hours post,62.2 mmHg
same,Hemodynamic instability,[3]; hemodynamics monitored continuously,No hemodynamic instability was observed
same,"Mean Arterial Blood Pressures Following IV Citrulline, Pre-dose",[3]; pre-dose,67.0 mmHg
